How the values were obtained:
[1] = Fibril formation by transmission electron microscopy; type: physicochemical; details: negative stain TEM
Protocol: Fibrillated PSMα1 and PSMα4 samples were collected following the ThT fibrillation kinetics assay (as described above) by combining the contents of 2–3 wells from the plate. Solutions were centrifuged at 21,000 × g and the supernatant was discarded. The pellet containing the fibrils was re-suspended in 20 μl of ultra-pure water.
Fibril formation of the short segments, IIKIIK, IIKVIK, LFKFFK and KLFKFFK, was examined for peptides dissolved directly from the powder form. IIKVIK from PSMα1 and IIKIIK from PSMα4 were re-suspended to 20 mM with 75% DMSO in ultra-pure water and incubated for about 1 week at room temperature (Fig. 2b). LFKFFK and KLFKFFK from PSMα3 were re-suspended in ultra-pure water to 10 mM. LFKFFK was incubated for about a month and KLFKFFK was incubated for 14 days at room temperature (Fig. 3b).
Five-microliter samples were applied directly onto copper TEM grids with support films of Formvar/Carbon (Ted Pella), which were charged by glow-discharge (PELCO easiGlow, Ted Pella) immediately before use. Grids were allowed to adhere for 2 min and negatively stained with 5 μl of 2% uranyl acetate solution. Micrographs were recorded using FEI Tecnai G2 T20 S-Twin transmission electron microscope operated at an accelerating voltage of 200 KeV (located at the Department of Materials Science & Engineering at the Technion, Israel), FEI Tecnai G2 T12 TEM operated at an accelerating voltage of 120 kV (located at the Russell Berrie Electron Microscopy Center of Soft Matter at the Technion, Israel). Images were recorded digitally by a Gatan US 1000 CCD camera using the DigitalMicrograph® software.

[2] = Fibril thermal-stability assay (TEM); type: physicochemical; details: 10 mM (LFKFFK in ultra-pure water, IIKIIK in DMSO), 3 days at room temperature, 50 °C for 5 min, then cooled at room temperature 20 min
Protocol: For the fibril thermal-stability assay (Fig. 5), peptides were dissolved to 10 mM (LFKFFK in ultra-pure water and IIKIIK in DMSO) and incubated at room temperature for 3 days. Samples were applied directly onto copper TEM grids and stained as described above. The samples were then incubated at 50 °C in a pre-heated thermoblock for 5 min and immediately applied onto TEM grids. The samples were then allowed to cool down at room temperature for 20 min and applied onto TEM grids. Micrographs were recorded as described above.

Micrococcus luteus = assay: Disc diffusion assay testing antibacterial activity; type: cell-based; details: peptide 50 mg ml−1 in ultra-pure water (LFKFFK, KLFKFFK) or DMSO (IIKVIK, IIKIIK) loaded on discs, LB-agar, incubated over-night, coincides with activity in solution (Supplementary Fig. 4)
Protocol: (§1) Micrococcus luteus (an environmental isolate) was a kind gift from Prof. Charles Greenblatt from the Hebrew university in Jerusalem, Israel. An inoculum was grown in Luria-Bertani (LB) medium at 30 °C with 220 rpm shaking overnight. Staphylococcus hominis (ATTC 27844) and Staphylococcus aureus (ATCC 25923) were purchased from ATCC, USA. An inoculum was grown in brain-heart infusion (BHI) media at 37 °C with 220 rpm shaking overnight.
(§2) Bacterial cultures were grown overnight as described above and diluted 1000-fold to a fresh media until growth reached to optical density of ~0.4 measured at 600 nm (OD600). The refreshed cultures were plated on LB-agar or BHI-agar according to the bacterial strain. The antibacterial activity of PSMα segments was examined: Lyophilized peptides were dissolved in ultra-pure water (LFKFFK and KLFKFFK) or DMSO (IIKVIK and IIKIIK) to a final concentration of 50 mg ml^−1. The concentrated peptide solutions were loaded on blank antimicrobial susceptibility discs (Oxoid, UK). Discs loaded with ultra-pure water or DMSO were used as controls. The discs were gently placed on bacteria plated agar and incubated over-night at the appropriate temperatures.

Staphylococcus hominis = assay: as above; type: cell-based; details: ATTC 27844, peptide 50 mg ml−1 in ultra-pure water (LFKFFK, KLFKFFK) or DMSO (IIKVIK, IIKIIK) loaded on discs, BHI-agar, incubated over-night, coincides with activity in solution (Supplementary Fig. 4)
Protocol: as §1, §2

Staphylococcus aureus = assay: as above; type: cell-based; details: ATCC 25923, peptide 50 mg ml−1 in ultra-pure water loaded on discs, BHI-agar, incubated over-night
Protocol: as §1, §2

[3] = Thioflavin T fluorescence fibrillation kinetics assay; details: 50 µM peptide, 200 µM ThT; Tris buffer pH 7.5 (PSMα1 and mutant) or ultra-pure water (PSMα4 and mutant); 37 °C; about 100 h; mean of triplicates
Protocol: Final concentrations for each reaction were 50 µM peptide (PSMα1, PSMα4, or their mutants) and 200 µM ThT. Blank solutions were also prepared for each reaction, containing everything but the peptides. The reaction mixture was carried out in a black 96-well flat-bottom plate (Greiner bio-one) covered with a thermal seal film (EXCEL scientific) and incubated in a plate reader (CLARIOstar BMG LABTECH) at a temperature of 37 °C with 500 rpm shaking for 85 s before each reading cycle, and up to 1000 cycles of 6 min each. Measurements were made in triplicates. Fluorescence was measured by excitation at 438 ± 20 nm and emission at 490 ± 20 nm over a period of about 100 h. All triplicate values were averaged, appropriate blanks were subtracted, and the resulting values were plotted against time. Calculated standard errors of the mean are presented as error bars. The entire experiment was repeated at least three times on different days.

[4] = 20 mM in 75% DMSO in ultra-pure water, about 1 week at room temperature
[5] = 10 mM in ultra-pure water, room temperature, LFKFFK about a month, KLFKFFK 14 days

Row | Substance | fibril formation, electron micrographs [1, 4] | thermal stability of fibrils [2] | antibacterial activity against M. luteus (Micrococcus luteus) | antibacterial activity against S. hominis (Staphylococcus hominis) | fibril formation, electron micrographs [1, 5] | toxicity to S. aureus (Staphylococcus aureus) | Thioflavin T binding [3]
1 | IIKIIK [spine segment of PSMα4; acetylated N-terminus and amidated C-terminus, or unmodified termini for crystallography] | fibrils | remain stable | do not elicit antibacterial activity | do not elicit antibacterial activity |  |  | 
2 | IIKVIK [spine segment of PSMα1; acetylated N-terminus and amidated C-terminus, or unmodified termini for crystallography] | fibrils |  | do not elicit antibacterial activity | do not elicit antibacterial activity |  |  | 
3 | KLFKFFK [one-residue longer PSMα3 segment] |  |  | dose-dependent antibacterial activity | dose-dependent antibacterial activity | straight and twisted crystalline fibrils | not toxic | 
4 | LFKFFK [truncated segment of PSMα3; acetylated N-terminus and amidated C-terminus, or unmodified termini for crystallography] |  | dissolve upon heating to 50 °C, and reform upon cooling | dose-dependent antibacterial activity | dose-dependent antibacterial activity | fibrils and nano-crystals | not toxic | 
5 | MAIVGTIPKPIKAIIDIFAK |  |  |  |  |  |  | no ThT binding
6 | MGIIAGPIPVIKSLIEQFTGK |  |  |  |  |  |  | no ThT binding

Source: publication PMC6115460, “Extreme amyloid polymorphism in Staphylococcus aureus virulent PSMα peptides” (Nature Communications, 2018)
